Source: US20120195857A1, “Hepatitis C Virus Inhibitors” (Bristol-Myers Squibb Company, priority 2010, published 2012)
Like-named read-outs stand apart in the source and are kept apart here.

Test system: HCV 1b genotype
Test: microbe, parasite or virus in culture
Format: cell-based
Conditions: Hepatitis C virus, HCV 1b genotype replicon
Description: An HCV Replicon assay was utilized in the present disclosure, and was prepared, conducted and validated as described in commonly owned PCT/US2006/022197 and in O'Boyle et. al. Antimicrob Agents Chemother. 2005 April; 49(4):1346-53. Assay methods incorporating luciferase reporters have also been used as described (Apath.com).
HCV-neo replicon cells and replicon cells containing resistance substitutions in the NSSA region were used to test the currently described family of compounds. […] Ranges are as follows: A =0.5 pM to 10 pM; B=11 pM to 90 pM; C=91 pM to 160 pM; D=[…] to 5 nM.

[1] = read-out: EC50 (Effective 50% inhibitory concentration)

Row | Structure (SMILES) | EC50 [1] [nM] | EC50 (read-out: EC50 Range) [nM]
1 | COC(=O)N[C@H](C(=O)N1[C@@H]2C[C@@H]2C[C@H]1c1ncc(-c2ccc(-c3ccc(-c4cnc([C@@H]5C[C@H]6C[C@H]6N5C(=O)[C@@H](NC(=O)OC)C5CCOCC5)[nH]4)c4nc[nH]c34)cc2)[nH]1)C1CCOCC1 [Example 13] | 4.18 | 0.161 to 5
2 | COC(=O)N[C@H](C(=O)N1[C@@H]2C[C@@H]2C[C@H]1c1nc(-c2ccc(-c3ccc(-c4ccc(-c5c[nH]c([C@@H]6C[C@H]7C[C@H]7N6C(=O)[C@@H](NC(=O)OC)C(C)C)n5)cc4)c4[nH]ccc34)cc2)c[nH]1)C(C)C [Example 18] | 0.00274 | –
3 | COC(=O)N[C@H](C(=O)N1[C@@H]2C[C@@H]2C[C@H]1c1ncc(-c2ccc(-c3ccc(-c4cnc([C@@H]5C[C@H]6C[C@H]6N5C(=O)[C@@H](NC(=O)OC)C(C)C)[nH]4)c4nc[nH]c34)cc2)[nH]1)C(C)C [Example 12] | 0.0409 | 0.011 to 0.09
4 | COC(=O)N[C@H](C(=O)N1[C@@H](C)CC[C@H]1c1ncc(-c2ccc(-c3ccc(-c4coc([C@@H]5CC[C@H](C)N5C(=O)[C@@H](NC(=O)OC)C5CCOCC5)n4)c4c3CCC4)cc2)[nH]1)C1CCOCC1 [Example 7] | 0.0942 | 0.091 to 0.16
5 | COC(=O)N[C@H](C(=O)N1[C@@H](C)CC[C@H]1c1ncc(-c2ccc(-c3ccc(-c4cnc([C@@H]5CC[C@H](C)N5C(=O)[C@@H](NC(=O)OC)C5CCOCC5)[nH]4)c4nc[nH]c34)cc2)[nH]1)C1CCOCC1 [Example 14] | – | 0.161 to 5
6 | COC(=O)N[C@H](C(=O)N1[C@@H]2C[C@@H]2C[C@H]1c1ncc(-c2ccc(-c3ccc(-c4cnc([C@@H]5C[C@H]6C[C@H]6N5C(=O)[C@@H](NC(=O)OC)C5CCOCC5)[nH]4)c4c3CCC4)cc2)[nH]1)C1CCOCC1 [Example 4] | – | 0.011 to 0.09
7 | COC(=O)NC(C(=O)N1[C@@H]2C[C@@H]2C[C@H]1c1ncc(-c2ccc(-c3cc(-c4cnc([C@@H]5C[C@H]6C[C@H]6N5C(=O)[C@@H](NC(=O)OC)C(C)C)[nH]4)cc4c3CCC4)cc2)[nH]1)C(C)C (some centres unmarked) [Example 5] | – | 0.091 to 0.16
8 | COC(=O)N[C@H](C(=O)N1CCC[C@H]1c1ncc(-c2ccc(-c3ccc(-c4cnc([C@@H]5CCCN5C(=O)[C@@H](NC(=O)OC)C5CCOCC5)[nH]4)c4ccccc34)cc2)[nH]1)C1CCOCC1 [Example 2] | – | 0.011 to 0.09
